According to US8669088B2, “Enzyme associated with equol synthesis” (Otsuka Pharmaceutical Co., Ltd., priority 2007, dated 2014):

Assays:
daidzein = assay: Dihydrodaidzein biosynthesis activity in centrifuged supernatant of disrupted cell material and coenzyme dependency (Example A1); type: biochemical, Lactococcus 20-92 strain; details: supernatant of disrupted cells; 37° C., 2 hour; HPLC (FIG. 1)
Protocol: The frozen cells (67 mL bottle×2) were thawed, and centrifuged at 4° C. at 8,000 rpm for 10 minutes. The pellet was used in the test below. First, the pellet was suspended in 2 ml of a 0.1 M phosphate-potassium solution containing 1 mM PMSF (Wako Pure Chemical Industries, Ltd.), 2 mM DTT (Wako Pure Chemical Industries, Ltd.) and 5 mM sodium hydrosulfite (Wako Pure Chemical Industries, Ltd.). The suspension was supplied to two 2 ml tubes with screw caps (Assist) and pre-supplemented with […] zirconia/silica beads (BioSpec Products, Inc.). The cells were disrupted using FastPrep® FP100A (Thermo ELECTRON CORPORATION) (6500 rpm, 10 seconds, ice cooling×8). The resulting liquid was centrifuged to obtain supernatant. The suspension of disrupted cell was centrifuged at about 10,000 rpm at 4° C. for 10 minutes to obtain a supernatant, which was then diluted to 4.5 mL with 0.1 M potassium phosphate solution containing 1 mM PMSF, 2 mM DTT and 5 mM sodium hydrosulfite. This was used as an enzyme source.
An enzyme reaction mixture of the composition below was prepared, and the mixture was incubated at 37° C. for 2 hour. After incubation, 3 mL of ethyl acetate was added to the enzyme reaction mixture for extraction. After drying, the extract was dissolved by the mobile phase (eluent). The dissolved product was analyzed by HPLC. […]

dihydrodaidzein = assay: Tetrahydrodaidzein biosynthesis activity in centrifuged supernatant of disrupted cell material and NADH or NADPH dependency (Example B2); type: biochemical, Lactococcus 20-92 strain; details: centrifuged supernatant of disrupted cells; 37° C., 2 hours; HPLC (FIG. 11)
Protocol: The frozen cells were thawed and centrifuged at 4° C. for 15 minutes (5,000×G). The pellet was used in the test below. First, the pellet (wet weight 2.7 g) was suspended in 10 ml of a 0.1 M phosphate-potassium solution containing 1 mM PMSF and 5 mM sodium hydrosulfite. After preheating at 37° C. for 5 minutes, lysozyme was added in an amount of 100 mg per gram of the pellet (wet weight) to cause a reaction at 37° C. for 1.5 hours. Then, an equivalent amount of 0.1 M dipotassium phosphate solution was added to the reaction mixture, and the mixture was vigorously agitated with a vortex mixer after adding zirconia-silica beads (3 ml). The cells were then disrupted with a sonicator (Branson Sonifier Cell Disruptor 200) (3 cycles of a 5-minute sonication and a 2-minute rest). The disrupted cell suspension was centrifuged at about 10,000×G for 15 minutes to obtain a supernatant, which was then used as an enzyme source. An enzyme reaction mixture of the composition below was prepared, and was incubated at 37° C. for 2 hours. After incubation, 5 mL of ethyl acetate was added to the enzyme reaction product for extraction. Then, the product was dried to prepare a sample for HPLC analysis. [table]

[1] = tested on: dihydrodaidzein synthesis enzyme gene; assay: Induction of expression of dihydrodaidzein synthesis enzyme gene by daidzein, RT-PCR (Example A7); type: cell-based, Lactococcus 20-92 strain; details: 10 mg/L daidzein in modified GAM broth, eight hours, 37° C., anaerobic; RT-PCR (FIG. 6)
Protocol: Sealed Lactococcus 20-92 strain kept at 4° C. was incubated for eight hours in a modified GAM broth culture medium, that contains 10 mg/L daidzein (Funakoshi Co., Ltd.) or no daidzein, at 37° C. under an anaerobic condition. 25 mL of the culture solution was transferred to a 50 mL tube, and centrifuged for ten minutes at 3500 rpm, 4° C. The culture medium was removed by decantation and cells were collected. The collected cells were immediately frozen by liquid nitrogen. Then, the entire RNA was extracted and purified using 1 mL of TRIzol solution (Invitrogen) according to the instruction. The purified entire RNA was processed by DNase I (Invitrogen) to remove the genome DNA, and used for synthesis of first-strand cDNA.
From 2 μg of the entire RNA thus processed by DNaseI, the first-strand cDNA (reverse transcription) was synthesized using SuperScript® First-Strand Synthesis System for RT-PCR (Invitrogen). The synthesis of the first-strand cDNA was carried out using Random Hexamer mix as an extension primer according to the instruction. […] The final reaction liquid was used as a template for RT-PCR.
The dihydrodaidzein synthesis enzyme gene was amplified through RT-PCR using the four final reaction products as detailed in (2) of the present Example as templates. The expression amounts were compared with each other. […]

Compound: NC(=O)C1=CN([C@@H]2O[C@H](COP(=O)(O)OP(=O)(O)OC[C@H]3O[C@@H](n4cnc5c(N)ncnc54)[C@H](O)[C@@H]3O)[C@@H](O)[C@H]2O)C=CC1 [NADH]
- coenzyme dependency of the conversion of daidzein into dihydrodaidzein (daidzein): dependent
- coenzyme dependency of the conversion of dihydrodaidzein into tetrahydrodaidzein (dihydrodaidzein): dependent

Compound: O=c1c(-c2ccc(O)cc2)coc2cc(O)ccc12 [daidzein, 4′,7-dihydroxy isoflavone]
- expression of mRNA of dihydrodaidzein synthesis enzyme gene [1]: induced the expression of mRNA
